Experimental findings from patent US12491207B2, “Article of manufacture comprising local anesthetic, buffer, and glycosaminoglycan in syringe with improved stability” (Vaneltix Pharma, Inc., priority 2017, dated 2025) are described below.

The nature of the series: Loss of lidocaine HCl on sterilization and storage in glass or plastic containers. Format: physicochemical. On the procedure: This composition was packaged in 20-mL cyclic olefin polymer (COP) and polypropylene (PP) syringes; the polypropylene was not non-nucleated. Storage conditions were, as indicated below, either 25° C./60% relative humidity (RH) or 40° C./75% RH.
Testing points were as follows: at the initiation of the stability study, after 1 month, 2 months, 3 months, 6 months, and 12 months.
Additionally, the syringe parts (the plunger and the syringe body) were analyzed for leachables.

Structures can show the parent of a compound that is named as a salt.

Take `CCN(CC)CC(=O)Nc1c(C)cccc1C` [lidocaine hydrochloride]: the “loss of lidocaine hydrochloride after sterilization (FIG. 9)” value is, setting by setting: (glass vials, 80 mM phosphate buffer) “small loss”; (glass vials, different phosphate buffer molarities except 80 mM) “no loss”; (plastic syringes, increasing with phosphate buffer molarity) “significant loss”.
